Data from patent US5202315A, “Cephalosporin compounds” (Lucky, Ltd., priority 1989, dated 1993).
≈ marks a conversion by molar mass, not a printed value.

Assays:
Klebsiella pneumoniae = test: Antibacterial activity against clinically isolated strains, MIC; format: cell-based; details: 10 clinical isolates, broth microdilution test; for MIC90: read-out: MIC 90%
Pseudomonas aeruginosa = test: as above; format: cell-based; details: 54 clinical isolates, broth microdilution test; for MIC90: read-out: MIC 90%
[1] = tested on: Staphylococcus aureus methicillin susceptible; test: as above; format: cell-based; details: methicillin susceptible, 42 clinical isolates, broth microdilution test; for MIC90: read-out: MIC 90%
[2] = In-vivo absorbency (plasma concentrations & pharmacokinetic parameters); design: species or system SD rat (male); details: plasma, SD male rat, iv 20 mg/kg, read-out: Plasma Conc.
[3] = tested on: Klebsiella pneumoniae ATCC 10031; test: Antibacterial activity, MIC; format: cell-based; details: ATCC10031, ATCC 10031, agar two-fold dilution, 37° C., 20 hours, read-out: MIC
In short: (§1)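 Agar two-fold dilution method: compound serially diluted two-fold in Mueller-Hinton agar, spotted with 2 μl of a 10^7 CFU/ml inoculum of each standard strain, then incubated at 37 °C for 20 h.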

[4] = tested on: Micrococcus luteus ATCC 9341; test: Antibacterial activity, MIC; format: cell-based; details: ATCC9341, ATCC 9341, agar two-fold dilution, 37° C., 20 hours, read-out: MIC
In short: as §1

[5] = tested on: Serratia marcescens ATCC 27117; test: Antibacterial activity, MIC; format: cell-based; details: ATCC27117, ATCC 27117, agar two-fold dilution, 37° C., 20 hours, read-out: MIC
In short: as §1

[6] = tested on: Bacillus cereus ATCC 11778; test: Antibacterial activity, MIC; format: cell-based; details: ATCC11778, ATCC 11778, agar two-fold dilution, 37° C., 20 hours, read-out: MIC
In short: as §1

[7] = tested on: Pseudomonas aeruginosa ATCC 27853; test: Antibacterial activity, MIC; format: cell-based; details: ATCC27853, ATCC 27853, agar two-fold dilution, 37° C., 20 hours, read-out: MIC
In short: as §1

[8] = tested on: Shigella sonnei ATCC 11060; test: Antibacterial activity, MIC; format: cell-based; details: ATCC11060, ATCC 11060, agar two-fold dilution, 37° C., 20 hours, read-out: MIC
In short: as §1

[9] = tested on: Acinetobacter calcoaceticus ATCC 15473; test: Antibacterial activity, MIC; format: cell-based; details: ATCC15473, ATCC 15473, agar two-fold dilution, 37° C., 20 hours, read-out: MIC
In short: as §1

[10] = tested on: Enterobacter aerogenes ATCC 29751; test: Antibacterial activity, MIC; format: cell-based; details: Klebsiella aerogenes, ATCC29751; ATCC 29751; agar two-fold dilution, 37° C., 20 hours; read-out: MIC
In short: as §1

[11] = tested on: Shigella flexneri ATCC 11836; test: Antibacterial activity, MIC; format: cell-based; details: ATCC11836, agar two-fold dilution, 37° C., 20 hours
In short: as §1

[12] = tested on: Citrobacter freundii ATCC 8090; test: Antibacterial activity, MIC; format: cell-based; details: ATCC8090, ATCC 8090, agar two-fold dilution, 37° C., 20 hours, read-out: MIC
In short: as §1

[13] = tested on: Morganella morganii ATCC 8076h; test: Antibacterial activity, MIC; format: cell-based; details: ATCC8076H, agar two-fold dilution, 37° C., 20 hours
In short: as §1

[14] = tested on: Staphylococcus aureus ATCC 6538p; test: Antibacterial activity, MIC; format: cell-based; details: ATCC6538P, ATCC 6538p, agar two-fold dilution, 37° C., 20 hours, read-out: MIC
In short: as §1

[15] = tested on: Staphylococcus epidermidis ATCC 12228; test: Antibacterial activity, MIC; format: cell-based; details: ATCC12228, ATCC 12228, agar two-fold dilution, 37° C., 20 hours, read-out: MIC
In short: as §1

[16] = tested on: Salmonella typhimurium ATCC 14028; test: Antibacterial activity, MIC; format: cell-based; details: Salmonella enterica; ATCC 14028; agar two-fold dilution, 37° C., 20 hours; read-out: MIC
In short: as §1

[17] = tested on: Escherichia coli ATCC 25922; test: Antibacterial activity, MIC; format: cell-based; details: ATCC25922, agar two-fold dilution, 37° C., 20 hours
In short: as §1

[18] = tested on: Pseudomonas aeruginosa ATCC 10145; test: Antibacterial activity, MIC; format: cell-based; details: ATCC10145, ATCC 10145, agar two-fold dilution, 37° C., 20 hours, read-out: MIC
In short: as §1

[19] = tested on: Pseudomonas aeruginosa ATCC 25619; test: Antibacterial activity, MIC; format: cell-based; details: ATCC25619, ATCC 25619, agar two-fold dilution, 37° C., 20 hours, read-out: MIC
In short: as §1

[20] = tested on: Enterobacter cloacae ATCC 27508; test: Antibacterial activity, MIC; format: cell-based; details: ATCC27508, ATCC 27508, agar two-fold dilution, 37° C., 20 hours, read-out: MIC
In short: as §1

[21] = tested on: Proteus vulgaris ATCC 6059; test: Antibacterial activity, MIC; format: cell-based; details: ATCC6059, ATCC 6059, agar two-fold dilution, 37° C., 20 hours, read-out: MIC
In short: as §1

[22] = tested on: Escherichia coli ATCC 10536; test: Antibacterial activity, MIC; format: cell-based; details: ATCC10536, agar two-fold dilution, 37° C., 20 hours
In short: as §1

[23] = tested on: Providencia rettgeri ATCC 9250; test: Antibacterial activity, MIC; format: cell-based; details: ATCC9250, agar two-fold dilution, 37° C., 20 hours
In short: as §1

[24] = tested on: Proteus mirabilis ATCC 25933; test: Antibacterial activity, MIC; format: cell-based; details: ATCC25933, ATCC 25933, agar two-fold dilution, 37° C., 20 hours, read-out: MIC
In short: as §1

[25] = tested on: Bacillus megaterium ATCC 9885; test: Antibacterial activity, MIC; format: cell-based; details: Priestia megaterium, ATCC9885; ATCC 9885; agar two-fold dilution, 37° C., 20 hours; read-out: MIC
In short: as §1

[26] = tested on: Staphylococcus aureus methicillin resistant; test: Antibacterial activity against clinically isolated strains, MIC; format: cell-based; details: methicillin resistant, 7 clinical isolates, broth microdilution test; for MIC90: read-out: MIC 90%

Row | Compound | MIC50 (Klebsiella pneumoniae) | MIC90 (Klebsiella pneumoniae) | MIC50 (Pseudomonas aeruginosa) | MIC90 (Pseudomonas aeruginosa) | MIC50 [1] | MIC90 [1] | concentration at 1 min [2] | concentration at 2.5 min [2] | concentration at 5 min [2] | concentration at 10 min [2] | concentration at 20 min [2] | concentration at 40 min [2] | MIC [3] | MIC [4] | MIC [5] | MIC [6] | MIC [7] | MIC [8] | MIC [9] | MIC [10] | further results
1 | C[n+]1c(N)cc(N)nc1SCC1=C(C(=O)[O-])N2C(=O)C(NC(=O)/C(=N\OC(C)(C)C(=O)O)c3csc(N)n3)[C@H]2SC1 (some centres unmarked) [Compound I-1, 7-[(Z)-2-(2-aminothiazol-4-yl)-2-(2-carboxyprop-2-oxyimino)acetamido]-3-(4,6-diamino-1-methylpyrimidinium-2-yl) thiomethyl-3-cephem-4-carboxylate] | 0.063 µg/mL (≈ 0.101 µM) | 0.13 µg/mL (≈ 0.208 µM) | 1 µg/mL (≈ 1.6 µM) | 4 µg/mL (≈ 6.41 µM) | 2 µg/mL (≈ 3.21 µM) | 2 µg/mL (≈ 3.21 µM) | 152000 ng/mL | 101000 ng/mL | 65000 ng/mL | 45000 ng/mL | 29000 ng/mL | 14000 ng/mL | 0.063 µg/mL (≈ 0.101 µM) | 0.25 µg/mL (≈ 0.401 µM) | 0.063 µg/mL (≈ 0.101 µM) | 64 µg/mL (≈ 103 µM) | 1 µg/mL (≈ 1.6 µM) | 0.031 µg/mL (≈ 0.0497 µM) | 2 µg/mL (≈ 3.21 µM) | 1 µg/mL (≈ 1.6 µM) | MIC [11]: 0.031 µg/mL (≈ 0.0497 µM); MIC [12]: 0.063 µg/mL (≈ 0.101 µM); MIC [13]: ≤ 0.008 µg/mL; MIC [14]: 2 µg/mL (≈ 3.21 µM); MIC [15]: 1 µg/mL (≈ 1.6 µM); MIC [16]: 0.13 µg/mL (≈ 0.208 µM); MIC [17]: 0.063 µg/mL (≈ 0.101 µM); MIC [18]: 2 µg/mL (≈ 3.21 µM); MIC [19]: 1 µg/mL (≈ 1.6 µM); MIC [20]: 0.016 µg/mL (≈ 0.0257 µM); MIC [21]: 0.031 µg/mL (≈ 0.0497 µM); MIC [22]: 0.063 µg/mL (≈ 0.101 µM); MIC [23]: ≤ 0.008 µg/mL; MIC [24]: 0.031 µg/mL (≈ 0.0497 µM); MIC [25]: 0.25 µg/mL (≈ 0.401 µM); MIC50 [26]: > 128 µg/mL; MIC90 [26]: > 128 µg/mL
2 | CC[n+]1c(N)cc(N)nc1SCC1=C(C(=O)[O-])N2C(=O)C(NC(=O)/C(=N\OC(C)(C)C(=O)O)c3csc(N)n3)C2SC1 (centres unmarked) [Compound I-2] | 0.13 µg/mL (≈ 0.204 µM) | 0.13 µg/mL (≈ 0.204 µM) | 2 µg/mL (≈ 3.14 µM) | 4 µg/mL (≈ 6.27 µM) | 2 µg/mL (≈ 3.14 µM) | 2 µg/mL (≈ 3.14 µM) | 55000 ng/mL | 33000 ng/mL | 22000 ng/mL | 14000 ng/mL | 7300 ng/mL | 4500 ng/mL | 0.063 µg/mL (≈ 0.0988 µM) | 0.25 µg/mL (≈ 0.392 µM) | 0.13 µg/mL (≈ 0.204 µM) | 64 µg/mL (≈ 100 µM) | 1 µg/mL (≈ 1.57 µM) | 0.063 µg/mL (≈ 0.0988 µM) | 4 µg/mL (≈ 6.27 µM) | 2 µg/mL (≈ 3.14 µM) | MIC [11]: 0.031 µg/mL (≈ 0.0486 µM); MIC [12]: 0.13 µg/mL (≈ 0.204 µM); MIC [13]: ≤ 0.008 µg/mL; MIC [14]: 2 µg/mL (≈ 3.14 µM); MIC [15]: 1 µg/mL (≈ 1.57 µM); MIC [16]: 0.25 µg/mL (≈ 0.392 µM); MIC [17]: 0.063 µg/mL (≈ 0.0988 µM); MIC [18]: 2 µg/mL (≈ 3.14 µM); MIC [19]: 1 µg/mL (≈ 1.57 µM); MIC [20]: 0.031 µg/mL (≈ 0.0486 µM); MIC [21]: 0.031 µg/mL (≈ 0.0486 µM); MIC [22]: 0.063 µg/mL (≈ 0.0988 µM); MIC [23]: ≤ 0.008 µg/mL; MIC [24]: 0.031 µg/mL (≈ 0.0486 µM); MIC [25]: 0.5 µg/mL (≈ 0.784 µM); MIC50 [26]: > 128 µg/mL; MIC90 [26]: > 128 µg/mL
